From patent US8952034B2, “Fused heterocyclic compounds as ion channel modulators” (Gilead Sciences, Inc., priority 2009, dated 2015)

Target: wild-type human cardiac sodium channel, hNav1.5 (Homo sapiens, UniProt Q14524)
Assay: Late INa screening assay (automated whole cell patch clamp, PatchXpress)
Type: cell-based
Conditions: compound at 1 μM; HEK293 cells expressing hNav1.5; late INa generated with 10 μM Tefluthrin (or 50 nM ATX II); read-out: LateINa_1 uM (percent block of late INa)
Procedure, shortened: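 Late sodium current through wild-type human hNav1.5 stably expressed in HEK293 cells (no beta subunits) was recorded by automated whole-cell patch clamp on a PatchXpress 7000A at 24-27° C. Late INa was induced with 10 μM Tefluthrin or 50 nM ATX II. Cells were stepped from −120 mV to −20 mV for 250 ms at 0.1 Hz, and percent block was normalized to current in Na-free extracellular solution.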

Sequence of wild-type human cardiac sodium channel, hNav1.5 (Q14524 whole entry): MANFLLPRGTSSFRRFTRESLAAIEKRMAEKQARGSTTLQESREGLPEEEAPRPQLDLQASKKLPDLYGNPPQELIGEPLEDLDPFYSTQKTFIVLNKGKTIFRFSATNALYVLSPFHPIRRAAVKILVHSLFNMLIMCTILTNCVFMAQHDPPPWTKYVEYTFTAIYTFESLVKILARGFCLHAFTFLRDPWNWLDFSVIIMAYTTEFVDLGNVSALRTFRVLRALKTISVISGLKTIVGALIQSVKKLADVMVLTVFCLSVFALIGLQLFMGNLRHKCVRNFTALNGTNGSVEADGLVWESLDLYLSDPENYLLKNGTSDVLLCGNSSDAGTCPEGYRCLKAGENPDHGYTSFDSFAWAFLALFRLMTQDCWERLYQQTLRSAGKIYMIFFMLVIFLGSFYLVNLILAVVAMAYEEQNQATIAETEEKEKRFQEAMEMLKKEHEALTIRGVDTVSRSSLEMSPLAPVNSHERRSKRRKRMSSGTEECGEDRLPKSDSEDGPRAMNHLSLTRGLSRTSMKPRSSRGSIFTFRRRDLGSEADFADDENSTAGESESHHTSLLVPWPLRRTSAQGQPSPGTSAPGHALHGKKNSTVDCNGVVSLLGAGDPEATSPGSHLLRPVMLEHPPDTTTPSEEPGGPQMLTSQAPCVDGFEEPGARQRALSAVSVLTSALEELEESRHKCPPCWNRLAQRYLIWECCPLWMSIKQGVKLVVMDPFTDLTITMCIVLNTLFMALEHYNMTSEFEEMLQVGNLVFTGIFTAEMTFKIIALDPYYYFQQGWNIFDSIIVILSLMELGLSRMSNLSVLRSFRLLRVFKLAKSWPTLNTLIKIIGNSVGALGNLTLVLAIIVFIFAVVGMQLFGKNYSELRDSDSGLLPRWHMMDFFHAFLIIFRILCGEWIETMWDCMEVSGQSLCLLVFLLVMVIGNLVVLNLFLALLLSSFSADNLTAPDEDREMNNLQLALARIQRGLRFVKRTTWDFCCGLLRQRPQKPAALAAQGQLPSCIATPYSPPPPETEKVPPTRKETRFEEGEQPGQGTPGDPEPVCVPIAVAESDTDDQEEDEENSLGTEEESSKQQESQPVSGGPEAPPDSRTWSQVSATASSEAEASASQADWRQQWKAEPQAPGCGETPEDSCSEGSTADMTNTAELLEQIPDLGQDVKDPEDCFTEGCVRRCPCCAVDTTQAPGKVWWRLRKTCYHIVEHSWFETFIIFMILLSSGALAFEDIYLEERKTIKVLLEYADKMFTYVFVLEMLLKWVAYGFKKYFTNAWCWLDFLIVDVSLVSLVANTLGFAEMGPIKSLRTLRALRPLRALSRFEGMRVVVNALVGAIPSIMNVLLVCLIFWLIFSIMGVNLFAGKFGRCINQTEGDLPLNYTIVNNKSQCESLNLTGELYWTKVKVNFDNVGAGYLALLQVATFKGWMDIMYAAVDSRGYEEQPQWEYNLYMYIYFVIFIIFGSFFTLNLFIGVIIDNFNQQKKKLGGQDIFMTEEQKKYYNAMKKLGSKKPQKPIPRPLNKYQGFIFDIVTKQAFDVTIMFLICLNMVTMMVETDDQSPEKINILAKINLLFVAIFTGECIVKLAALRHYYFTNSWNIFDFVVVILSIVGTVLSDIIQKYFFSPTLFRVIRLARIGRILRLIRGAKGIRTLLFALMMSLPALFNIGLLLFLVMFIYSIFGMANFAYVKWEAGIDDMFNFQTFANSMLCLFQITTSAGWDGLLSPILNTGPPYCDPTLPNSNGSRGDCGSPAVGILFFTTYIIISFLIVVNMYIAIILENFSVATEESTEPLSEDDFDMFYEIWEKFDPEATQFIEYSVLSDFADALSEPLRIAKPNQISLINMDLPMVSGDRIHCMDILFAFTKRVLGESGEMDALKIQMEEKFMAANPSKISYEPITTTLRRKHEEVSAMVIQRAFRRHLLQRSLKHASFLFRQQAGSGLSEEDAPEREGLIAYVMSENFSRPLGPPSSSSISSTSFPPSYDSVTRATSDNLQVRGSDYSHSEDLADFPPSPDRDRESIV

Structure (SMILES): FC(F)(F)c1ccc(C#Cc2ccc3nnc(C(F)(F)F)n3c2)cc1 [BHN-177, 3-(trifluoromethyl)-6-{[4-(trifluoromethyl)phenyl]ethynyl}[1,2,4]triazolo[4,3-a]pyridine]
- inhibition at 1 µM: 23.6%

Structure (SMILES): COCCOc1cc(OC(F)(F)F)ccc1-c1ccc2nnc(C(F)(F)F)n2c1 [BHN-178, 6-[2-(2-methoxyethoxy)-4-(trifluoromethoxy)phenyl]-3-(trifluoromethyl)[1,2,4]triazolo[4,3-a]pyridine]
- inhibition at 1 µM: 28.5%

Structure (SMILES): FC(F)(F)COc1ccc(-c2ccc3cnc(C(F)(F)F)n3c2)cn1 [BHN-179, 6-[6-(2,2,2-trifluoroethoxy)pyridin-3-yl]-3-(trifluoromethyl)imidazo[1,5-a]pyridine]
- inhibition at 1 µM: 49.7%

Structure (SMILES): FC(F)(F)c1nnc2ccc(-c3ccc(OC4CC4)nc3)cn12 [BHN-180, 6-[6-(cyclopropyloxy)pyridin-3-yl]-3-(trifluoromethyl)[1,2,4]triazolo[4,3-a]pyridine]
- inhibition at 1 µM: 21.1%

Structure (SMILES): N#CCOc1cc(OC(F)(F)F)ccc1-c1ccc2nnc(C(F)(F)F)n2c1 [BHN-181, {5-(trifluoromethoxy)-2-[3-(trifluoromethyl)[1,2,4]triazolo[4,3-a]pyridin-6-yl]phenoxy}acetonitrile]
- inhibition at 1 µM: 18.7%

Structure (SMILES): Cc1noc(-c2cc(-c3ccc4nnc(C(F)(F)F)n4c3)ccc2OC(F)(F)F)n1 [BHN-182, 6-[3-(3-methyl-1,2,4-oxadiazol-5-yl)-4-(trifluoromethoxy)phenyl]-3-(trifluoromethyl)[1,2,4]triazolo[4,3-a]pyridine]
- inhibition at 1 µM: 18.9%

Structure (SMILES): FC(F)(F)c1ncc2ccc(-c3ncco3)cn12 [BHN-183, 6-(1,3-oxazol-2-yl)-3-(trifluoromethyl)imidazo[1,5-a]pyridine]
- inhibition at 1 µM: 19.5%

Structure (SMILES): O=C(NCC(F)(F)c1nnc2ccc(-c3ccc(OC(F)(F)F)cc3)cn12)c1ccccn1 [BHN-184, N-(2,2-difluoro-2-{6-[4-(trifluoromethoxy)phenyl][1,2,4]triazolo[4,3-a]pyridin-3-yl}ethyl)pyridine-2-carboxamide]
- inhibition at 1 µM: 29.8%

Structure (SMILES): COc1nnc2ccc(-c3ccc(OC(F)(F)F)cc3)cn12 [BHN-185, 3-methoxy-6-[4-(trifluoromethoxy)phenyl][1,2,4]triazolo[4,3-a]pyridine]
- inhibition at 1 µM: 29.1%

Structure (SMILES): FC(F)(F)COc1nnc2ccc(-c3ccc(OC(F)(F)F)cc3)cn12 [BHN-186, 3-(2,2,2-trifluoroethoxy)-6-[4-(trifluoromethoxy)phenyl][1,2,4]triazolo[4,3-a]pyridine]
- inhibition at 1 µM: 45.2%

Structure (SMILES): FC(F)(F)COc1ccc(-c2ccc3nnc(C(F)(F)F)n3c2)nn1 [BHN-187, 6-[6-(2,2,2-trifluoroethoxy)pyridazin-3-yl]-3-(trifluoromethyl)[1,2,4]triazolo[4,3-a]pyridine]
- inhibition at 1 µM: 15.2%

Structure (SMILES): COCC(F)(F)c1nnc2ccc(-c3ccc(OC(F)(F)F)c(C)c3)cn12 [BHN-188, 3-(1,1-difluoro-2-methoxyethyl)-6-[3-methyl-4-(trifluoromethoxy)phenyl][1,2,4]triazolo[4,3-a]pyridine]
- inhibition at 1 µM: 41.3%

Structure (SMILES): FC(F)(F)Oc1ccc(-c2ccc3nnc(C(F)(F)F)n3c2)cc1C(F)(F)F [BHN-189, 6-[4-(trifluoromethoxy)-3-(trifluoromethyl)phenyl]-3-(trifluoromethyl)[1,2,4]triazolo[4,3-a]pyridine]
- inhibition at 1 µM: 56.9%

Structure (SMILES): Fc1ccc(COCC(F)(F)c2nnc3ccc(-c4ccc(OC(F)(F)F)cc4)cn23)cc1F [BHN-190, 3-{2-[(3,4-difluorobenzyl)oxy]-1,1-difluoroethyl}-6-[4-(trifluoromethoxy)phenyl][1,2,4]triazolo[4,3-a]pyridine]
- inhibition at 1 µM: 24.3%

Structure (SMILES): FC(F)(F)c1ncc2ccc(-c3nccs3)cn12 [BHN-191, 6-(1,3-thiazol-2-yl)-3-(trifluoromethyl)imidazo[1,5-a]pyridine]
- inhibition at 1 µM: 19.8%

Structure (SMILES): COCC(F)(F)c1nnc2ccc(C#Cc3ccccc3)cn12 [BHN-192, 3-(1,1-difluoro-2-methoxyethyl)-6-(phenylethynyl)[1,2,4]triazolo[4,3-a]pyridine]
- inhibition at 1 µM: 31%

Structure (SMILES): Cc1cc(COC(F)(F)c2nnc3ccc(-c4ccc(OC(F)(F)F)cc4)cn23)no1 [BHN-193, 3-{difluoro[(5-methyl-1,2-oxazol-3-yl)methoxy]methyl}-6-[4-(trifluoromethoxy)phenyl][1,2,4]triazolo[4,3-a]pyridine]
- inhibition at 1 µM: 54.7%

Structure (SMILES): FC(F)(F)c1ncc2ccc(-c3ccccc3)cn12 [BHN-194, 6-phenyl-3-(trifluoromethyl)imidazo[1,5-a]pyridine]
- inhibition at 1 µM: 22.2%

Structure (SMILES): N#CC1(c2ccc(-c3ccc4nnc(C(F)(F)F)n4c3)cc2)CC1 [BHN-195, 1-{4-[3-(trifluoromethyl)[1,2,4]triazolo[4,3-a]pyridin-6-yl]phenyl}cyclopropanecarbonitrile]
- inhibition at 1 µM: 47.3%

Structure (SMILES): FC(F)(F)c1ncc2ccc(-c3nc4ccccc4o3)cn12 [BHN-196, 2-[3-(trifluoromethyl)imidazo[1,5-a]pyridin-6-yl]-1,3-benzoxazole]
- inhibition at 1 µM: 26.8%

Structure (SMILES): CCC(O)(CC)C(F)(F)c1nnc2ccc(-c3ccc(OC(F)(F)F)cc3)cn12 [BHN-197, 3-(difluoro{6-[4-(trifluoromethoxy)phenyl][1,2,4]triazolo[4,3-a]pyridin-3-yl}methyl)pentan-3-ol]
- inhibition at 1 µM: 25.4%

Structure (SMILES): OCC(F)(F)c1nnc2ccc(C#Cc3ccc(C(F)(F)F)cc3)cn12 [BHN-198, 2,2-difluoro-2-(6-{[4-(trifluoromethyl)phenyl]ethynyl}[1,2,4]triazolo[4,3-a]pyridin-3-yl)ethanol]
- inhibition at 1 µM: 17.4%

Structure (SMILES): FC(F)(F)c1ccc(-c2ccc3nnc(C(F)(F)F)n3c2)c(C(F)(F)F)c1 [BHN-199, 6-[2,4-bis(trifluoromethyl)phenyl]-3-(trifluoromethyl)[1,2,4]triazolo[4,3-a]pyridine]
- inhibition at 1 µM: 20.6%

Structure (SMILES): COCC(F)(F)c1nnc2ccc(-c3ccc(OC(F)(F)F)cc3C)cn12 [BHN-200, 3-(1,1-difluoro-2-methoxyethyl)-6-[2-methyl-4-(trifluoromethoxy)phenyl][1,2,4]triazolo[4,3-a]pyridine]
- inhibition at 1 µM: 40.8%

Structure (SMILES): CC(C)c1nnc2ccc(-c3cc(F)c(Oc4ccccc4)c(F)c3)nn12 [BHN-201, 6-(3,5-difluoro-4-phenoxyphenyl)-3-(propan-2-yl)[1,2,4]triazolo[4,3-b]pyridazine]
- inhibition at 1 µM: 29.7%

Structure (SMILES): Cc1c(-c2ccc(OC(F)(F)F)cc2)ccc2nnc(C(F)(F)F)n12 [BHN-202, 5-methyl-6-[4-(trifluoromethoxy)phenyl]-3-(trifluoromethyl)[1,2,4]triazolo[4,3-a]pyridine]
- inhibition at 1 µM: 74.2%

Structure (SMILES): CC(C)c1nnc2ccc(-c3ccc(OCC(F)(F)F)nc3)nn12 [BHN-203, 3-(propan-2-yl)-6-[6-(2,2,2-trifluoroethoxy)pyridin-3-yl][1,2,4]triazolo[4,3-b]pyridazine]
- inhibition at 1 µM: 19.3%

Structure (SMILES): FC(F)(F)Oc1ccc(-c2ccc3nnc(C(F)(F)OCc4cccnc4)n3c2)cc1 [BHN-204, 3-[difluoro(pyridin-3-ylmethoxy)methyl]-6-[4-(trifluoromethoxy)phenyl][1,2,4]triazolo[4,3-a]pyridine]
- inhibition at 1 µM: 43.9%

Structure (SMILES): CC(C)(O)COCC(F)(F)c1nnc2ccc(-c3ccc(OC(F)(F)F)cc3)cn12 [BHN-205, 1-(2,2-difluoro-2-{6-[4-(trifluoromethoxy)phenyl][1,2,4]triazolo[4,3-a]pyridin-3-yl}ethoxy)-2-methylpropan-2-ol]
- inhibition at 1 µM: 25.2%

Structure (SMILES): FC(F)(F)Oc1ccc(-c2ccc3nnc(C(F)(F)OCc4noc(C5CC5)n4)n3c2)cc1 [BHN-206, 3-{[(5-cyclopropyl-1,2,4-oxadiazol-3-yl)methoxy](difluoro)methyl}-6-[4-(trifluoromethoxy)phenyl][1,2,4]triazolo[4,3-a]pyridine]
- inhibition at 1 µM: 44.7%

Structure (SMILES): CC(C)Cc1nc(COC(F)(F)c2nnc3ccc(-c4ccc(OC(F)(F)F)cc4)cn23)no1 [BHN-207, 3-(difluoro{[5-(2-methylpropyl)-1,2,4-oxadiazol-3-yl]methoxy}methyl)-6-[4-(trifluoromethoxy)phenyl][1,2,4]triazolo[4,3-a]pyridine]
- inhibition at 1 µM: 60.3%

Structure (SMILES): CC(C)c1nc(COC(F)(F)c2nnc3ccc(-c4ccc(OC(F)(F)F)cc4)cn23)no1 [BHN-208, 3-(difluoro{[5-(propan-2-yl)-1,2,4-oxadiazol-3-yl]methoxy}methyl)-6-[4-(trifluoromethoxy)phenyl][1,2,4]triazolo[4,3-a]pyridine]
- inhibition at 1 µM: 70.5%

Structure (SMILES): Fc1cc(-c2ccc3nnc(C(F)(F)F)n3n2)ccc1OC(F)(F)F [BHN-209, 6-[3-fluoro-4-(trifluoromethoxy)phenyl]-3-(trifluoromethyl)[1,2,4]triazolo[4,3-b]pyridazine]
- inhibition at 1 µM: 61%

Structure (SMILES): Fc1cc(-c2ccc3nnc(C(F)(F)F)n3n2)cc(F)c1Oc1ccccc1 [BHN-210, 6-(3,5-difluoro-4-phenoxyphenyl)-3-(trifluoromethyl)[1,2,4]triazolo[4,3-b]pyridazine]
- inhibition at 1 µM: 33.8%

Structure (SMILES): FC(F)(F)Oc1ccc(-c2ccc3nnc(C(F)(F)OCc4ccccn4)n3c2)cc1 [BHN-211, 3-[difluoro(pyridin-2-ylmethoxy)methyl]-6-[4-(trifluoromethoxy)phenyl][1,2,4]triazolo[4,3-a]pyridine]
- inhibition at 1 µM: 57.4%

Structure (SMILES): FC(F)(F)Oc1ccc(-c2ccc3nnc(C(F)(F)OCc4ccnc5ccccc45)n3c2)cc1 [BHN-212, 4-[(difluoro{6-[4-(trifluoromethoxy)phenyl][1,2,4]triazolo[4,3-a]pyridin-3-yl}methoxy)methyl]quinoline]
- inhibition at 1 µM: 59.6%

Structure (SMILES): FC(F)(F)c1ncc2ccc(-c3nc4ccccc4s3)cn12 [BHN-213, 2-[3-(trifluoromethyl)imidazo[1,5-a]pyridin-6-yl]-1,3-benzothiazole]
- inhibition at 1 µM: 24%

Structure (SMILES): FC(F)(F)Oc1ccc(-c2ccc3nnc(C(F)(F)OCC4CC4)n3c2)cc1 [BHN-214, 3-[(cyclopropylmethoxy)(difluoro)methyl]-6-[4-(trifluoromethoxy)phenyl][1,2,4]triazolo[4,3-a]pyridine]
- inhibition at 1 µM: 80.8%
